For 17 compounds, T/C results are on record in PubChem BioAssay AID248 (DTP/NCI, 2004).

Values joined by “and” are separate entries in the source; they are usually repeats but may differ in a detail not shown here. Identical values can stand only once. Inconclusive results and toxic doses are left out.

For the test, the system named is L1210 leukemia ip in BDF1 mice, survival T/C. Kind of test: NCI In Vivo Anticancer Drug Screen. Data for tumor model L1210 Leukemia (intraperitoneal) in B6D2F1 (BDF1) mice. The following applies: endpoint: mean survival time, higher = longer survival. In outline:
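Transplantable tumor model; survival measured in treated vs vehicle control mice. Value = treated/control.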

Setting [1] is: dose: 100.0 mg/kg/injection, schedule: Q01DX009 (ip), vehicle: saline with Tween-80.
Where [2] appears, read: dose: 200.0 mg/kg/injection, schedule: Q01DX009 (ip), vehicle: saline with Tween-80.
[3] abbreviates: dose: 50.0 mg/kg/injection, schedule: Q01DX001 (ip), vehicle: saline.
Where [4] appears, read: dose: 100.0 mg/kg/injection, schedule: Q01DX001 (ip), vehicle: saline.
Setting [5] is: dose: 200.0 mg/kg/injection, schedule: Q01DX001 (ip), vehicle: saline.
Setting [6] is: dose: 75.0 mg/kg/injection, schedule: Q01DX001 (ip), vehicle: saline.
Where [7] appears, read: dose: 100.0 mg/kg/injection, schedule: Q04DX003 (ip), vehicle: saline.
[8] abbreviates: dose: 200.0 mg/kg/injection, schedule: Q04DX003 (ip), vehicle: saline.
[9] abbreviates: dose: 400.0 mg/kg/injection, schedule: Q04DX003 (ip), vehicle: saline.
Where [10] appears, read: dose: 25.0 mg/kg/injection, schedule: Q04DX002 (ip), vehicle: saline.
[11] abbreviates: dose: 50.0 mg/kg/injection, schedule: Q04DX002 (ip), vehicle: saline.
Where [12] appears, read: dose: 100.0 mg/kg/injection, schedule: Q04DX002 (ip), vehicle: saline.

For `CC(=O)OC1CCC2(C)C3CCC4(C)C(CCC45OC5(C)OC(C)=O)C3CC3OC32C1` (centres undefined), the T/C (dose: 50.0 mg/kg/injection, schedule: Q01DX001 (sc), vehicle: steriod suspending solution) is 111 % of control; the T/C (dose: 100.0 mg/kg/injection, schedule: Q01DX001 (sc), vehicle: steriod suspending solution) is 98 % of control; the T/C (dose: 200.0 mg/kg/injection, schedule: Q01DX001 (sc), vehicle: steriod suspending solution) was 106 % of control; the T/C (dose: 400.0 mg/kg/injection, schedule: Q01DX001 (sc), vehicle: steriod suspending solution) was 101 % of control.
With `CC(Br)C(=O)NCC(=O)O` (centres undefined), the T/C is 93 % of control under setting [1] and 92 % of control under setting [2].
For `Cc1cc(C(=O)Nc2ccc(C3=NCCN3)cc2)ccc1C(=O)Nc1ccc(C2=NCCN2)cc1`, the T/C was 98 % of control (dose: 3.75 mg/kg/injection, schedule: Q01DX Z (ip), vehicle: saline); 102 % of control (dose: 7.5 mg/kg/injection, schedule: Q01DX Z (ip), vehicle: saline); 119 % of control (dose: 15.0 mg/kg/injection, schedule: Q01DX Z (ip), vehicle: saline); 196 % of control (dose: 60.0 mg/kg/injection, schedule: Q01DX Z (ip), vehicle: saline); 157 % of control (dose: 120.0 mg/kg/injection, schedule: Q01DX Z (ip), vehicle: saline); 175 % of control (dose: 240.0 mg/kg/injection, schedule: Q01DX Z (ip), vehicle: saline).
`CCOc1c(Br)cc(Br)cc1/C=N/NS(=O)(=O)c1ccc(C)cc1`: the T/C is 103 % of control (dose: 50.0 mg/kg/injection, schedule: Q01DX009 (ip), vehicle: Klucel (hydroxypropylcellulose) (HPC)); 105 % of control (dose: 100.0 mg/kg/injection, schedule: Q01DX009 (ip), vehicle: Klucel (hydroxypropylcellulose) (HPC)); 101 % of control (dose: 100.0 mg/kg/injection, schedule: Q04DX003 (ip), vehicle: Klucel (hydroxypropylcellulose) (HPC)); 109 % of control (dose: 200.0 mg/kg/injection, schedule: Q04DX003 (ip), vehicle: Klucel (hydroxypropylcellulose) (HPC)); 92 % of control (dose: 400.0 mg/kg/injection, schedule: Q04DX003 (ip), vehicle: Klucel (hydroxypropylcellulose) (HPC)).
`CC(=O)OCC1OC(n2cnc3c(=S)nc(N)[nH]c32)C(OC(C)=O)C1OC(C)=O` (centres undefined): the T/C runs as follows: (dose: 1.6 mg/kg/injection, schedule: Q01DX Z (ip), vehicle: carboxymethylcellulose (CMC)) 106 % of control; (dose: 5.0 mg/kg/injection, schedule: Q01DX Z (ip), vehicle: carboxymethylcellulose (CMC)) 162 % of control; (dose: 6.25 mg/kg/injection, schedule: Q01DX Z (oral), vehicle: other) 94 % of control; (dose: 7.5 mg/kg/injection, schedule: Q01DX Z (ip), vehicle: carboxymethylcellulose (CMC)) 162 % of control; (dose: 11.2 mg/kg/injection, schedule: Q01DX Z (ip), vehicle: carboxymethylcellulose (CMC)) 176 % of control; (dose: 12.5 mg/kg/injection, schedule: Q01DX Z (oral), vehicle: other) 106 % of control. Further, the T/C by setting is: (dose: 25.0 mg/kg/injection, schedule: Q01DX Z (oral), vehicle: other) 105 % of control; (dose: 44.0 mg/kg/injection, schedule: Q01DX Z (ip), vehicle: carboxymethylcellulose (CMC)) 86 % of control; under setting [3], 100 % of control; (dose: 50.0 mg/kg/injection, schedule: Q01DX Z (oral), vehicle: other) 122 % of control; under setting [4], 123 % of control; (dose: 150.0 mg/kg/injection, schedule: Q01DX015 (oral), vehicle: other) 120 % of control. Also, the T/C is 103 % of control under setting [5]; 97 % of control (dose: 200.0 mg/kg/injection, schedule: Q01DX015 (oral), vehicle: other); 94 % of control (dose: 250.0 mg/kg/injection, schedule: Q01DX015 (oral), vehicle: other).
Consider `COC(=O)c1cc(C)[nH]c(=O)c1CN`, for which the T/C (dose: 75.0 mg/kg/injection, schedule: Q01DX001 (ip), vehicle: water) is 104 % of control and the T/C (dose: 150.0 mg/kg/injection, schedule: Q01DX001 (ip), vehicle: water) was 107 % of control.
`CC(C)c1cc(C(C)C)c(S(=O)(=O)Cl)c(C(C)C)c1`: the T/C under setting [3] is 98 % of control; the T/C under setting [4] is 95 % of control; the T/C under setting [5] is 95 % of control; the T/C (dose: 400.0 mg/kg/injection, schedule: Q01DX001 (ip), vehicle: saline) was 98 % of control.
For `CCc1ccccc1N=Nc1sc(N)nc1C`, the T/C was 94 % of control under setting [6]; 100 % of control (dose: 150.0 mg/kg/injection, schedule: Q01DX001 (ip), vehicle: saline); 97 % of control (dose: 300.0 mg/kg/injection, schedule: Q01DX001 (ip), vehicle: saline).
For the compound `CC[CH2][Sn]([Cl])([Cl])[CH2]CC`, the T/C (dose: 0.13 mg/kg/injection, schedule: Q01DX009 (ip), vehicle: saline) was 98 % of control; the T/C (dose: 0.25 mg/kg/injection, schedule: Q01DX009 (ip), vehicle: saline) was 112 % of control; the T/C (dose: 0.5 mg/kg/injection, schedule: Q01DX009 (ip), vehicle: saline) was 105 % of control and 108 % of control; the T/C (dose: 1.0 mg/kg/injection, schedule: Q01DX009 (ip), vehicle: saline) was 101 % of control; the T/C (dose: 2.0 mg/kg/injection, schedule: Q01DX009 (ip), vehicle: saline) is 101 % of control; the T/C (dose: 4.0 mg/kg/injection, schedule: Q01DX009 (ip), vehicle: saline) is 104 % of control.
Regarding `CC12CC3CC(C1)CC(CC(N)=O)(C3)C2`, the T/C is 98 % of control under setting [7], 103 % of control under setting [8] and 98 % of control under setting [9].
`COc1cc2cnc3c4cc(OC)c(OC)cc4ccc3c2cc1OC`: the T/C (dose: 80.0 mg/kg/injection, schedule: Q01DX009 (ip), vehicle: saline) was 88 % of control; the T/C (dose: 120.0 mg/kg/injection, schedule: Q01DX009 (ip), vehicle: saline) is 90 % of control; the T/C (dose: 240.0 mg/kg/injection, schedule: Q01DX009 (ip), vehicle: saline) is 91 % of control.
For `CCOC(=O)/C(C)=N/Nc1nn[nH]n1`, the T/C reads like this: under setting [7], 99 % of control; under setting [8], 99 % of control; under setting [9], 86 % of control.
For `O=C(/C=C/C=C/c1ccccc1)c1ccc(Cl)cc1`, the T/C by setting is: under setting [1], 97 % of control; (dose: 100.0 mg/kg/injection, schedule: Q04DX003 (ip), vehicle: saline with Tween-80) 95 % of control; under setting [2], 92 % of control; (dose: 400.0 mg/kg/injection, schedule: Q01DX009 (ip), vehicle: saline with Tween-80) 95 % of control; (dose: 400.0 mg/kg/injection, schedule: Q04DX003 (ip), vehicle: saline with Tween-80) 96 % of control.
For `CN1C(=O)CC[n+]2ccccc21`, the T/C by setting is: under setting [7], 101 % of control; under setting [8], 104 % of control; under setting [9], 86 % of control.
Turning to `Cc1cc([N+](=O)[O-])cc(C)c1OC(=O)c1ccc(N=C(N)N)cc1`, the T/C (dose: 3.12 mg/kg/injection, schedule: Q01DX009 (ip), vehicle: saline) is 94 % of control; the T/C (dose: 6.25 mg/kg/injection, schedule: Q01DX009 (ip), vehicle: saline) was 93 % of control; the T/C (dose: 12.5 mg/kg/injection, schedule: Q01DX009 (ip), vehicle: saline) is 103 % of control; the T/C (dose: 25.0 mg/kg/injection, schedule: Q01DX009 (ip), vehicle: saline) is 97 % of control and 107 % of control; the T/C (dose: 25.0 mg/kg/injection, schedule: Q04DX003 (ip), vehicle: saline) was 111 % of control; the T/C (dose: 50.0 mg/kg/injection, schedule: Q01DX009 (ip), vehicle: saline) was 103 % of control and 92 % of control. Further, the T/C runs as follows: (dose: 50.0 mg/kg/injection, schedule: Q04DX003 (ip), vehicle: saline) 105 % of control; under setting [7], 100 % of control.
On to `CCCCCCCCCCN1CCC(N2CCCCC2)CC1`, for which the T/C under setting [10] is 102 % of control; the T/C under setting [11] was 102 % of control; the T/C under setting [12] was 98 % of control and 91 % of control.
With `CN(C)C1CCCC/C=C\C(=O)NC1` (centres undefined), the T/C was 99 % of control under setting [10], 101 % of control under setting [11], 109 % of control under setting [6] and 99 % of control under setting [12].
